Test results taken from PubChem BioAssay AID504575 (Southern Research Specialized Biocontainment Screening …, 2011).

Test system: MAGI cell cytotoxicity, 2% serum
Test: MAGI cell cytotoxicity, X4 antiviral format, dose response, cytotoxicity control for HIV-1 antiviral lead project, CXCR4-tropic MAGI assay, 2% serum, set 2 (AID 504575)

| SMILES | TC50 [µM] |
| --- | --- |
| Cc1c2c(=O)n(-c3nc4ccccc4s3)nc-2cc(O)n1CCc1cccs1 | 74.8 |
| COc1ccc(CCn2c(O)cc3nn(-c4nc5ccccc5s4)c(=O)c-3c2C)cc1 | 13.8 |
| Cc1c2c(=O)n(-c3nc4ccccc4s3)nc-2cc(O)n1CCC(C)C | 65 |
| COc1ccc(Cn2c(O)cc3nn(-c4nc5ccccc5s4)c(=O)c-3c2C)cc1 | 41.1 |
| Cc1c2c(=O)n(-c3nc4ccccc4s3)nc-2cc(O)n1Cc1ccccc1Cl | 32.9 |
| Cc1c2c(=O)n(-c3nc4ccccc4s3)nc-2cc(O)n1CCc1ccc(O)cc1 | 20.5 |
| COc1ccccc1Cn1c(O)cc2nn(-c3nc4ccccc4s3)c(=O)c-2c1C | 43.2 |
